According to patent US20240327372A1, “PREPARATION OF PHENE[…] […] STEREOISOMERS THEREOF AND PRECURSORS THEREOF” (priority 2022, published 2024):

Key:
[1] = biological target: dopamine transporter (DAT) (Rattus norvegicus (Rat), UniProt P23977); experiment: Competition radioligand binding, [3H]WIN35428, rat brain membranes; details: for IC50 / Ki: DA transporter; for Ki: Cheng-Prusoff
Text: Rat brain (Sprague Dawley, 200-250 g) synaptosomes were isolated from midbrain and hindbrain for serotonin transporter assays, striatum for dopamine transporter assays, and hippocampus plus overlying occipital cortex for norepinephrine transporter assays. Radioligands used were: [^3H]Citalopram 81.4 Ci/mmol (PerkinElmer NET1039250UC; Lot No. 2960876). [^3H]WIN35428 82.8 Ci/mmol (PerkinElmer NET1033250UC; Lot No. 2891473). [^3H]Nisoxetine 79.2 Ci/mmol (PerkinElmer NET1084250UC; Lot No. 2970324). Non-specific compounds used were: Citalopram (Tocris Bioscience 1427). JHW007 (Tocris Bioscience 4351). Nomifensine (Abcam ab146004). Test Compounds for the study were: racemic methylone HCl; (R)-methylone HCl; (S)-methylone HCl.
For membrane preparations, rat brains were dissected, tissue was added to ice-cold lysis buffer (50 mM Tris HCl; 5 mM MgCl2; 5 mM EDTA; protease inhibitor cocktail) and homogenized. The homogenate was centrifuged at 100×g for 2 minutes and the supernatant divided into polypropylene Eppendorf tubes. The supernatants were centrifuged at 17,000×g for 10 minutes at 4° C. to re-pellet the cell lysate. The pellet was resuspended in fresh wash buffer (50 mM Tris-HCl; 5 mM MgCl2; 5 mM EDTA) and centrifuged a third time at 17,000×g for 10 minutes at 4° C. The pellet was resuspended in wash buffer containing 10% sucrose as a cryoprotectant, divided into aliquots (0.3 mL) and stored at −80° C. A sample of the homogenate was analyzed for protein content using the MERCK® BCA assay. On the day of the assay, the membrane preparation was thawed and the pellet resuspended in final assay buffer.
Competition binding assays were carried out in 96-well polypropylene plates in a final volume of 250 μL per well. To each well was added 150 μL membranes, 50 μL of test compound, non-specific compound or buffer, and 50 μL radioligand solution in buffer. The plate was incubated at 30° C. for 90 minutes with gentle agitation. The incubation was stopped by vacuum filtration onto presoaked (wash buffer with PEI) GF/C filters using a 96-well FILTERMATE™ harvester, followed by 5 washes with ice-cold wash buffer. Filters were then dried under a warm air stream, sealed in polyethylene, scintillation cocktail added, and the radioactivity counted in a WALLAC® TriLux 1450 MicroBeta counter. For each concentration of drug, non-specific binding was subtracted from total binding to give specific binding. Data was fitted using the non-linear curve fitting routines in PRISM® (Graphpad Software Inc) to determine IC50. Ki was subsequently calculated using the ChengPrusoff equation.

[2] = system: NET; experiment: [3H]Norepinephrine uptake inhibition in rat brain synaptosomes; format: biochemical; details: NE
Procedure: Materials used were: Neurotransmitters [3H]5-HT (PerkinElmer, NET498001MC) [^3H]Dopamine (PerkinElmer, NET673250UC) [^3H]Norepinephrine (PerkinElmer, NET377250UC); Test Compounds Racemic methylone HCl (Merck, M-140); (R)-methylone HCl (Pisgah Labs); (S)-methylone HCl (Pisgah Labs); Reference Compounds Citalopram (Tocris Bioscience 1427). JHW007 (Tocris Bioscience 4351). Nomifensine (Abcam ab146004).
Synaptosomes were prepared from Sprague Dawley (200-250 g) rat brain regions (hippocampus for NE, striatum for DA and midbrain for 5-HT) using standard protocols. Tissues were dissected, added to sucrose buffer (0.32 M), homogenized with a dounce-homogenizer and centrifuged at 100×g to remove cells and debris. Supernatant was collected and centrifuged 17,000×g for 10 minutes at 4° C. to pellet the synaptosomes. The pellet was resuspended in fresh assay buffer.
Uptake assays were carried out in 96-well plates in a final volume of 250 μL per well. To each well was added 150 μL synaptosomes, 50 μL test, non-specific compound or buffer alone. The plate was incubated at 30° C. for 30 minutes with gentle agitation. 50 μL radiolabeled neurotransmitter in buffer was then added to each well to initiate the uptake. The plate was incubated at 30° C. for a further 5 minutes with gentle agitation. The incubation was stopped by vacuum filtration onto presoaked GF/C filters using a 96-well FilterMate™ harvester, followed by 3 washes with ice-cold wash buffer. Filters were then dried under a warm air stream, sealed in polyethylene, scintillation cocktail added, and the radioactivity counted in a Wallac® TriLux 1450 MicroBeta counter.
For each concentration of drug, non-specific uptake was subtracted from total uptake to give specific uptake. Data was fitted using the non-linear curve fitting routines in Prism® (Graphpad Software Inc) to determine IC50.

[3] = biological target: hKir2.1 (Homo sapiens (Human), UniProt P63252); format: cell-based; details: Kir2.1, Antagonist mode, test compound
Procedure: (§1) Electrophysiological assays were conducted to profile three compounds ((R)-methylone, (S)-methylone, or racemic methylone) for activities on the ion channel targets specified below using the Qube electrophysiological platform. Where presented, IC50 values were determined by a non-linear, least squares regression analysis. Reference standards were run as an integral part of each assay to ensure the validity of the results obtained.
(§2) Ion Channels tested were Eurofins Panel Part Number: CPROFullQB2DR Voltage-Gated Sodium: HEK-Nav1.5 (Peak), HEK-Nav1.5 (Late, Antagonist) Voltage-Gated Potassium: HEK-Kv4.3/KChIP2, CHO-hERG, CHO-KCNQ1/minK Voltage-Gated Calcium: HEK-Cav1.2 Inward-Rectifying Voltage-Gated Potassium: HEK-Kir2.1.
hKir2.1 Potassium Channel Assay—Qube APC After whole cell configuration is achieved, the cells are held at −30 mV. Kir2.1 currents are evoked by a single 500 ms pulse to −120 mV before returning to the holding potential of −30 mV. This paradigm is delivered once every 20 s to monitor the current amplitude.

[4] = biological target: hNav1.5 Late Current (Homo sapiens (Human), UniProt Q14524); experiment: hNav1.5 Late Current Sodium Channel Assay, Qube APC; format: cell-based; details: Nav1.5 Late Current, Antagonist mode, test compound
Procedure: as §1, §2
hNav1.5 Late Current Sodium Channel Assay—Qube APC Onset and steady state block of Late Nav1.5 current is measured using a pulse pattern, repeated every 5 sec, consisting of a hyperpolarizing pulse to −120 mV for a 200 ms duration, depolarization to −15 mV amplitude for a 40 ms duration, followed by step to 40 mV for 200 ms and finally a 100 ms ramp (1.2 V/s) to a holding potential of −80 mV. Late current is measured as charge current elicited during the ramp with 50 nM ATXII.

Sequence of hKir2.1 (P63252 whole entry): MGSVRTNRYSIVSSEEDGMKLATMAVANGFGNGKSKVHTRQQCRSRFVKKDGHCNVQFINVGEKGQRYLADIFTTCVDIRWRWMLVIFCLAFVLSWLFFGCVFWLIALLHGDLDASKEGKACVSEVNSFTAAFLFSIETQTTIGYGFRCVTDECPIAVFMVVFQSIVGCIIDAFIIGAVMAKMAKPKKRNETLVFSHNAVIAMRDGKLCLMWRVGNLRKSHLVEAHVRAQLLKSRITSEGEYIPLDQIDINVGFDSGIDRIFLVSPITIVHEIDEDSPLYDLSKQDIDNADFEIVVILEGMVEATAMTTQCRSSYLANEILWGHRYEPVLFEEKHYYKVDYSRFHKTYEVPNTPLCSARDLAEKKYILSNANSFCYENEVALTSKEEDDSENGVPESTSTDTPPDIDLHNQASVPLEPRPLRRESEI

Compound	IC50 [1]	Ki [1]	Potency relative to racemic methylone ([1]; DAT binding)	IC50 [2]	Estimated IC50 [3]	Estimated IC50 [4]
CN[C@H](C)C(=O)c1ccc2c(c1)OCO2 [(R)-methylone]	24.7 µM	12.3 µM	approximately three-fold less potent	0.242 µM	N/C (N/C indicates observed mean inhibition was <25%)	N/C (N/C indicates observed mean inhibition was <25%)
CN[C@@H](C)C(=O)c1ccc2c(c1)OCO2 [(S)-methylone]	8.34 µM	4.14 µM	–	0.316 µM	N/C (N/C indicates observed mean inhibition was <25%)	N/C (N/C indicates observed mean inhibition was <25%)
